Reference: patent publication US20130310379A1, “MODULATORS OF METHYL MODIFYING ENZYMES, COMPOSITIONS AND USES THEREOF” (CONSTELLATION PHARMACEUTICALS, priority 2010, published 2013)

Each compound was assayed against EZH2 (Homo sapiens, UniProt Q15910) (assay: EZH2 assay: rPRC2 with biotinylated oligonucleosome substrates and 3H SAM, FlashPlate scintillation counting, IC50). Settings: rPRC2, biotinylated oligonucleosome substrates, 3H SAM; read-out: EZH2 IC50.
Type: biochemical
Procedure: Assays were carried out by mixing rPRC2 together with biotinylated oligonucleosome substrates in the presence of the radio-labeled enzyme co-factor, S-adenosyl-L-methionine (^3H SAM) (Perkin Elmer) and monitoring the enzymatically mediated transfer of tritiated methyl groups from ^3H SAM to histone lysine residues. The amount of resulting tritated methylhistone product was measured by first capturing the biotinylated oligonuclesomes in streptavidin (SAV) coated FlashPlates (Perkin Elmer), followed by a wash step to remove un-reacted ^3H SAM, and then counting on a TopCount NXT 384 well plate scintillation counter (Perkin Elmer). The final assay conditions for EZH2 were as follows: 50 mM Tris Buffer pH 8.5, 1 mM DTT, 69 uM Brij-35 detergent, 5.0 mM MgCl2, 0.1 mg/mL BSA, 0.2 uM ^3H SAM, 0.2 uM biotinylated oligonucleosomes, 3.6 uM H3K27me3 peptide and 2 nM EZH2.
Compound IC50 measurements were obtained as follows: Compounds were first dissolved in 100% DMSO as 10 mM stock solutions. […] A 12.5 uL volume of the HMT enzyme, H3K27me3 peptide and oligonucleosome substrate in assay buffer was added to each well of the assay plate using a Multidrop Combi (ThermoFisher). Compounds were pre-incubated with the enzyme for 20 min, followed by initiation of the methyltransferase reaction by addition of 12.5 uL of 3H SAM in assay buffer (final volume=25 uL). The final concentrations of compounds ranged from a top default concentration of 80 uM down to 0.16 uM in ten 2-fold dilution steps. Reactions were carried out for 60 minutes and quenched with 20 uL per well of 1.96 mM SAH, 50 mM Tris PH 8.5, 200 mM EDTA. Stopped reactions were transferred to SAV coated Flashplates (Perkin Elmer), incubated for 120 min, washed with a plate washer, and then read on the TopCount NXT (1.0 min/well) to measure the amount of methylhistone product formed during the reaction. The amount of methylhistone product was compared with the amount of product formed in the 0% and 100% inhibition control wells allowing the calculation of % Inhibition in the presence of the individual compounds at various concentrations. IC50's were computed using a 4 parameter fit non-linear curve fitting software package (XLFIT, part of the database package, ActivityBase (IDBS)) where the four parameters were IC50, Hill slope, pre-transitional baseline (0% INH), and post-transitional baseline (100% INH); with the latter two parameters being fixed to zero and 100%, respectively, by default.

Sequence of EZH2 (Q15910 whole entry): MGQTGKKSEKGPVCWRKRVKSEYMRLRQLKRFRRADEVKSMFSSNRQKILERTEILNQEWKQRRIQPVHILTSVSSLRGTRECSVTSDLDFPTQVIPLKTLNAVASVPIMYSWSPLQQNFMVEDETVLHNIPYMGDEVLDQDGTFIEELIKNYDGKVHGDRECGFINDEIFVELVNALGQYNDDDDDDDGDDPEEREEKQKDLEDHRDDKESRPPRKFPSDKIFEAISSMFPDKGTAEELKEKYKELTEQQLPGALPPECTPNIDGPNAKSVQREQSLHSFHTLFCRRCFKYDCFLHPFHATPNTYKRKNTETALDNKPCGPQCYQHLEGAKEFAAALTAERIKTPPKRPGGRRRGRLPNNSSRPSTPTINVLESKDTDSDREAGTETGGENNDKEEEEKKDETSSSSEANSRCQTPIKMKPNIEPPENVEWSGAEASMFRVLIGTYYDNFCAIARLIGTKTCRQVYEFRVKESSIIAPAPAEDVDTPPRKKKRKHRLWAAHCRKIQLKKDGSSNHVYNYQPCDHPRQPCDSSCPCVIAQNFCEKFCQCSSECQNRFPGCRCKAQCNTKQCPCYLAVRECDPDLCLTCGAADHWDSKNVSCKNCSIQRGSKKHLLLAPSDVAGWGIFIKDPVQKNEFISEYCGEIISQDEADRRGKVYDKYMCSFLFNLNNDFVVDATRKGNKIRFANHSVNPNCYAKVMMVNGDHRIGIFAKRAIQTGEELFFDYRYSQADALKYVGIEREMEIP
Sequence of EZH2 (O75530 whole entry partner): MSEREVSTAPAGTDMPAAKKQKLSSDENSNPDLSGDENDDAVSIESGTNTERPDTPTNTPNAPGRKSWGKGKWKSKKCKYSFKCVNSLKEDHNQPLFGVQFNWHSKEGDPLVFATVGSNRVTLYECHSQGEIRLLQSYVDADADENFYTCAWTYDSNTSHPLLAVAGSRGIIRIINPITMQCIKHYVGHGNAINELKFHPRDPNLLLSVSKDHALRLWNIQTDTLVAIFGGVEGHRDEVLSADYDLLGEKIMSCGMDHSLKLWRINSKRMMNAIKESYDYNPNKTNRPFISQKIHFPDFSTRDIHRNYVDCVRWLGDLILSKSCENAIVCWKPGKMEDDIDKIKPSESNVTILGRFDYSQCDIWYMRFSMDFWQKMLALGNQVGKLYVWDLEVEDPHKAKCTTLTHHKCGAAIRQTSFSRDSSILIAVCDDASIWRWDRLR
Sequence of EZH2 (Q15022 whole entry partner): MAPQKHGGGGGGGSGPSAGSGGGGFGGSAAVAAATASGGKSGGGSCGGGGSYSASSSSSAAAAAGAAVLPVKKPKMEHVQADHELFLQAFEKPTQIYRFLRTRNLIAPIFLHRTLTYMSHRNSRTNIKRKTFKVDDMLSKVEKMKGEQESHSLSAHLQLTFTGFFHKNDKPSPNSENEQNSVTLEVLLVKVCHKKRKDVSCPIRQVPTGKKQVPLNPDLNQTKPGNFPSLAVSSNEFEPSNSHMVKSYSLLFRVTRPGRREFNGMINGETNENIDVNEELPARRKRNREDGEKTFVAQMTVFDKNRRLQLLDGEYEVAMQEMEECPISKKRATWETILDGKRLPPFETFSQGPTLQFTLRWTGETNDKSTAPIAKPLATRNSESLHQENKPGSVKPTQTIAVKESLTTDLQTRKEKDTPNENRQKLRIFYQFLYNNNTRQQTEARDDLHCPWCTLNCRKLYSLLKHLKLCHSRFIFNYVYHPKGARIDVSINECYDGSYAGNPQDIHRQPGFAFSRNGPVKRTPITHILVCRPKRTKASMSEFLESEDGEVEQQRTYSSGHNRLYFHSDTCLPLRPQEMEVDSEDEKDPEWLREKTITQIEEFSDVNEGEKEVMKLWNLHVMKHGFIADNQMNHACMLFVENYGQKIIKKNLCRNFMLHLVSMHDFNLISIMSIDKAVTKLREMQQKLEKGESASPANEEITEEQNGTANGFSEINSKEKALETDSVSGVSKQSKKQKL

Row | IC50 [µM] | Structure (SMILES)
1 | > 80 | CN(C(=O)c1ccc(Oc2ccccc2)cc1)C1CCNCC1 [Compound I-125, N-Methyl-4-phenoxy-N-(piperidin-4-yl)benzamide 2,2,2-trifluoroacetate]
2 | > 80 | CN(C(=O)c1ccc(COc2cccc(Br)c2)cc1)C1CCNCC1 [Compound I-126]
3 | > 80 | CC1(C)CC(NC(=O)c2ccc(Cc3ccccc3)cc2)CC(C)(C)N1 [Compound I-127, 4-Benzyl-N-(2,2,6,6-tetramethylpiperidin-4-yl)benzamide]
4 | > 80 | CC1(C)CC(NC(=O)c2ccc(COc3ccnc4ccccc34)cc2)CC(C)(C)N1 [Compound I-128]
5 | > 80 | CC1(C)CC(NC(=O)c2ccc(COc3cccc(-c4ccc(NCCN5CCOCC5)nc4)c3)cc2)CC(C)(C)N1 [Compound I-129]
6 | > 80 | CC1(C)CC(NC(=O)c2cccc(COc3cccc(Br)c3)c2)CC(C)(C)N1 [Compound I-130]
7 | > 80 | CCc1cccc(Oc2ccc(C(=O)NC3CC(C)(C)NC(C)(C)C3)cc2)c1 [Compound I-131]
8 | > 80 | CN(C)CCNC(=O)c1ccc(Oc2ccccc2)cc1 [Compound I-132]
9 | > 80 | CN(Cc1ccccc1)C(=O)c1ccc(Oc2ccccc2)cc1 [Compound I-133]
10 | > 80 | O=C(NC1CCCCC1)c1ccc(Oc2ccccc2)cc1 [Compound I-134]
11 | > 80 | CC(C)c1ccc(C(=O)NC2CC(C)(C)NC(C)(C)C2)cc1 [Compound I-135]
12 | > 80 | CC(C)Oc1ccc(C(=O)NC2CC(C)(C)NC(C)(C)C2)cc1 [Compound I-136]
13 | > 80 | CC1(C)CC(NC(=O)c2ccc3ccccc3c2)CC(C)(C)N1 [Compound I-137]
14 | > 80 | CC1(C)CC(NC(=O)c2ccc(C(C)(C)C)cc2)CC(C)(C)N1 [Compound I-138]
15 | > 80 | CC(C)CNC(=O)c1ccc(Oc2ccccc2)cc1 [Compound I-139]
16 | > 80 | CN(C)CCCNC(=O)c1ccc(Oc2ccccc2)cc1 [Compound I-140]
17 | > 80 | O=C(NCc1ccccc1)c1ccc(Oc2ccccc2)cc1 [Compound I-141]
18 | > 80 | CC1(C)CC(NC(=O)Nc2ccc(C(C)(C)C)cc2Br)CC(C)(C)N1 [Compound I-143]
19 | 5 to 20 | CC1(C)CC(NC(=O)c2ccc(Oc3ccccc3)c(Br)c2)CC(C)(C)N1 [Compound I-144]
20 | 20 to 80 | CC1(C)CC(NC(=O)c2ccc(SC3CCCCC3)cc2)CC(C)(C)N1 [Compound I-145]
21 | 20 to 80 | CC1(C)CC(NC(=O)c2ccc(OC3CCCCC3)cc2)CC(C)(C)N1 [Compound I-147]
22 | 5 to 20 | CC1(C)CC(NC(=O)c2ccc(Oc3ccccc3)c(F)c2)CC(C)(C)N1 [Compound I-148]
23 | 5 to 20 | CC1(C)CC(NC(=O)c2ccc(Oc3ccccc3Cc3ccccc3)cc2)CC(C)(C)N1 [Compound I-149]

Row | IC50 [µM] | Structure (SMILES)
24 | 5 to 20 | CC1(C)CC(NC(=O)c2ccc(Oc3ccccc3C3CCCCC3)cc2)CC(C)(C)N1 [Compound I-150]
25 | 5 to 20 | CC1(C)CC(NC(=O)c2ccc(Oc3ccccc3C(C)(C)C)cc2)CC(C)(C)N1 [Compound I-151]
26 | < 5 | CC1(C)CC(NC(=O)c2ccc(Oc3ccccc3OCc3ccccc3)cc2)CC(C)(C)N1 [Compound I-152]
27 | 20 to 80 | CC1(C)CC(NC(=O)c2ccc(COc3cccc(-c4ccc(NC(=O)C5CC5)nc4)c3)cc2)CC(C)(C)N1 [Compound I-153]
28 | 20 to 80 | CC1(C)CC(NC(=O)c2ccc(COc3cccc(-c4ccc(N)cc4)c3)cc2)CC(C)(C)N1 [Compound I-155]
29 | > 80 | Cc1ccc(Oc2ccc(C(=O)NC3CC(C)(C)NC(C)(C)C3)cc2)c(C#N)c1 [Compound I-156]
30 | 20 to 80 | CC1(C)CC(NC(=O)c2ccc(Oc3ccc(F)cc3C#N)cc2)CC(C)(C)N1 [Compound I-157]
31 | 20 to 80 | Cc1ccc(C#N)c(Oc2ccc(C(=O)NC3CC(C)(C)NC(C)(C)C3)cc2)c1 [Compound I-158]
32 | 20 to 80 | CC1(C)CC(NC(=O)c2ccc(Oc3c(F)cccc3C#N)cc2)CC(C)(C)N1 [Compound I-159]
33 | > 80 | CC1(C)CC(NC(=O)c2ccc(C(=O)Nc3ccccc3)cc2)CC(C)(C)N1 [Compound I-160]
34 | > 80 | CC1(C)CC(NC(=O)c2ccc(C(=O)Nc3cccc(Br)c3)cc2)CC(C)(C)N1 [Compound I-161]
35 | 20 to 80 | CC1(C)CC(NC(=O)c2ccc(NC(=O)c3cccc(Br)c3)cc2)CC(C)(C)N1 [Compound I-162]
36 | > 80 | CC1(C)CC(NC(=O)c2ccc(COc3cccc(N4CCOCC4)c3)cc2)CC(C)(C)N1 [Compound I-164]
37 | > 80 | CC1(C)CC(NC(=O)c2ccc(COc3cccc(N4CCNCC4)c3)cc2)CC(C)(C)N1 [Compound I-165]
38 | > 80 | CC1(C)CC(NC(=O)c2ccc(COc3cccc(N4CCCNCC4)c3)cc2)CC(C)(C)N1 [Compound I-166]
39 | 20 to 80 | CC1(C)CC(NC(=O)c2ccc(Oc3cccc(OCc4ccccc4)c3)cc2)CC(C)(C)N1 [Compound I-168]
40 | 5 to 20 | CC1(C)CC(NC(=O)c2ccc(Oc3cccc(CN4CCCCC4)c3)cc2)CC(C)(C)N1 [Compound I-169]
41 | 5 to 20 | CCC(C)c1ccccc1Oc1ccc(C(=O)NC2CC(C)(C)NC(C)(C)C2)cc1 (stereo not shown) [Compound I-170]
42 | > 80 | CC1(C)CC(NC(=O)c2ccc(Oc3ccc4ncccc4c3)cc2)CC(C)(C)N1 [Compound I-172]
43 | 20 to 80 | CC1(C)CC(NC(=O)c2ccc(Oc3ccccc3C#N)cc2Cl)CC(C)(C)N1 [Compound I-174]
44 | > 80 | CC1(C)CC(NC(=O)c2ccc(Oc3ccccc3)cc2Cl)CC(C)(C)N1 [Compound I-175]
45 | 20 to 80 | Cc1cccc(C#N)c1Oc1ccc(C(=O)NC2CC(C)(C)NC(C)(C)C2)cc1 [Compound I-176]
46 | > 80 | COc1ccc(Oc2ccc(C(=O)NC3CC(C)(C)NC(C)(C)C3)cc2)c(C#N)c1 [Compound I-177]

Row | IC50 [µM] | Structure (SMILES)
47 | > 80 | N#Cc1ccccc1Oc1ccc(C(=O)NC2CCNCC2)cc1Cl [Compound I-178]
48 | 20 to 80 | CC1(C)CC(NC(=O)c2ccc(Oc3ccccc3CO)cc2)CC(C)(C)N1 [Compound I-179]
49 | 20 to 80 | CC1(C)CC(NC(=O)c2ccc(Oc3cccc(Br)c3)cc2)CC(C)(C)N1 [Compound I-180]
50 | 5 to 20 | CC1(C)CC(NC(=O)c2ccc(Oc3cccc4c3CCCC4)cc2)CC(C)(C)N1 [Compound I-181]
51 | 5 to 20 | CC1(C)CC(NC(=O)c2ccc(COc3cccc4cnccc34)cc2)CC(C)(C)N1 [Compound I-182]
52 | < 5 | C#Cc1cccc(OCc2ccc(C(=O)NC3CC(C)(C)NC(C)(C)C3)cc2)c1 [Compound I-184]
53 | 20 to 80 | CC1(C)CC(NC(=O)c2ccc3oc4c(C#N)cccc4c3c2)CC(C)(C)N1 [Compound I-187]
54 | < 5 | CC1(C)CC(NC(=O)c2ccc(COc3cccc4c3CCCC4)cc2)CC(C)(C)N1 [Compound I-188]
55 | 20 to 80 | CC1(C)CC(NC(=O)c2ccc(COc3cccc4cccnc34)cc2)CC(C)(C)N1 [Compound I-189]
56 | 5 to 20 | CC1(C)CC(NC(=O)c2ccc(COc3cccc4ncccc34)cc2)CC(C)(C)N1 [Compound I-190]
57 | > 80 | COc1cc(Oc2ccccc2C#N)ccc1C(=O)NC1CC(C)(C)NC(C)(C)C1 [Compound I-191]
58 | > 80 | CC1(C)CC(C(=O)Nc2ccc(Oc3ccccc3)cc2)CC(C)(C)N1 [Compound I-192]
59 | > 80 | CN1CCC(NC(=O)c2ccc(Oc3ccccc3C#N)c(Cl)c2)CC1 [Compound I-193]
60 | < 5 | CC1(C)CC(NC(=O)c2ccc(Oc3ccccc3OCc3ccccc3)c(Cl)c2)CC(C)(C)N1 [Compound I-194]
61 | 5 to 20 | CC1(C)CC(NC(=O)c2ccc(Oc3ccccc3C3CCCCC3)c(Cl)c2)CC(C)(C)N1 [Compound I-195]
62 | < 5 | CC1(C)CC(NC(=O)c2ccc(Oc3ccccc3C#N)c(N3CCOCC3)c2)CC(C)(C)N1 [Compound I-196]
63 | < 5 | CC1(C)CC(NC(=O)c2ccc(Oc3ccccc3C#N)c(-c3ccccc3)c2)CC(C)(C)N1 [Compound I-197]
64 | < 5 | CCCc1cc(C(=O)NC2CC(C)(C)NC(C)(C)C2)ccc1Oc1ccccc1C#N [Compound I-198]
65 | 20 to 80 | CC1(C)CC(NC(=O)c2ccc3cc(Oc4ccccc4C#N)ccc3c2)CC(C)(C)N1 [Compound I-200]
66 | < 5 | CC1(C)CC(NC(=O)c2ccc(Oc3ccccc3C#N)c(Cc3ccccc3)c2)CC(C)(C)N1 [Compound I-201]
67 | 5 to 20 | CC1(C)CC(NC(=O)c2ccc(Oc3ccccc3C#N)c(-c3cncnc3)c2)CC(C)(C)N1 [Compound I-202]
